Assay results: US10457679B2, “Imidazo[4,5-c]quinolin-2-one compounds and their use in treating cancer” (AstraZeneca AB, priority 2015, dated 2019)
Like-named read-outs stand apart in the source and are kept apart here.

Experiments:
Assay type in all cases: cell-based
ATM kinase = target: T1, ATM kinase (Homo sapiens, UniProt Q13315); assay: Assay a) ATM cellular potency (pATM Ser1981 in X-ray irradiated HT29 cells); conditions: HT29 cells, 1 h compound, X-ray ~600 cGy, pATM Ser1981; may be geometric mean of several tests; read-out: Assay a) ATM Cell IC50
T1 construct: endogenous in cells; host or cells: HT29 cells (ECACC #85061109)
Protocol: The following assays were used to measure the effects of the compounds of the present invention: a) ATM cellular potency assay; b) PI3K cellular potency assay; c) mTOR cellular potency assay; d) ATR cellular potency assay. During the description of the assays, generally: • i. […] IC50 values were calculated using a smart fitting model in Genedata. […] Assay a): ATM Cellular Potency Rationale:
Most ATM molecules in the cell are rapidly phosphorylated on this site after doses of radiation as low as 0.5 Gy, and binding of a phosphospecific antibody is detectable after the introduction of only a few DNA double-strand breaks in the cell.
The rationale of the pATM assay is to identify inhibitors of ATM in cells. HT29 cells are incubated with test compounds for 1 hr prior to X-ray-irradiation. 1 h later the cells are fixed and stained for pATM (Ser1981). The fluorescence is read on the arrayscan imaging platform.
The following morning compounds of Formula (I) in 100% DMSO were added to assay plates by acoustic dispensing. After 1 h incubation at 37° C. and 5% CO2, plates (up to 6 at a time) were irradiated using the X-RAD 320 instrument (PXi) with equivalent to ˜600 cGy. Plates were returned to the incubator for a further 1 h. […] Then 20 μl of 0.1% Triton X100 in PBS was added and incubated for 20 minutes at r.t., to permeabalise cells. Then the plates were washed once with 50 μl/well PBS, using a Biotek EL405 plate washer.
After 1 h incubation at r.t., the plates were washed three times with 50 μl/well PBS, using a Biotek EL405 plate washer, and plates were sealed and kept in PBS at 4° C. until read. Plates were read using an ArrayScan VTI instrument, using an XF53 filter with 10× objective.

ATR kinase = target: T2, ATR kinase (Homo sapiens, UniProt Q13535); assay: Assay b) ATR cellular potency (pChk1 Ser345 in HT29 cells after 4NQO); conditions: HT29 cells, 4NQO, pChk1 Ser345; may be geometric mean of several tests; read-out: Assay b) ATR Cell IC50
T2 construct: measuring a decrease in phosphorylation of Chk1 (Ser 345) in HT29 cells; endogenous in cells; host or cells: HT29 cells (ECACC #85061109)
From the text: Assay b): ATR Cellular Potency
ATR is a PI 3-kinase-related kinase which phosphorylates multiple substrates on serine or threonine residues in response to DNA damage during or replication blocks. Chk1, a downstream protein kinase of ATR, plays a key role in DNA damage checkpoint control. Activation of Chk1 involves phosphorylation of Ser317 and Ser345 (the latter regarded as the preferential target for phosphorylation/activation by ATR).
The following morning compound of Formula (I) in 100% DMSO were added to assay plates by acoustic dispensing. After 1 h incubation at 37° C. and 5% CO2. 40 nl of 3 mM 4NQO in 100% DMSO was added to all wells by acoustic dispensing, except minimum control wells which were left untreated with 4NQO to generate a null response control. Plates were returned to the incubator for a further 1 h. […] Then 20 μl of 0.1% Triton X100 in PBS was added and incubated for 10 minutes at r.t., to permeabalise cells. Then the plates were washed once with 50 μl/well PBS, using a Biotek EL405 plate washer.
After 2 h incubation at r.t., the plates were washed three times with 50 μl/well PBS, using a Biotek EL405 plate washer, and plates were then sealed with black plate seals until read. Plates were read using an ArrayScan VTI instrument, using an XF53 filter with 10× objective.

mTOR = target: T3, mTOR (Homo sapiens, UniProt P42345); assay: Assay d) mTOR cellular potency (phospho-AKT Ser473 in MDA-MB-468 cells)
T3 construct: endogenous in cells; host or cells: MDA-MB-468 cells (ATCC HTB 132)
Protocol: Assay d): mTOR Cellular Potency
This assay was used to measure mTOR inhibition in cells. The aim of the phospho-AKT cell based mechanism of action assay using the Acumen Explorer is to identify inhibitors of either PI3Kα or mTOR-Rictor (Rapamycin insensitive companion of mTOR). This is measured by any decrease in the phosphorylation of the Akt protein at Ser473 (AKT lies downstream of PI3Kα in the signal transduction pathway) in the MDA-MB-468 cells following treatment with compound. Method Details:
MDA-MB-468 cells (human breast adenocarcinoma #ATCC HTB 132) were seeded at 1500 cells/well in 40 μl of DMEM containing 10% FBS and 1% glutamine into Greiner 384 well black flat-bottomed plates. Cell plates were incubated for 18 h in a 37° C. incubator before dosing with compounds of Formula (I) in 100% DMSO using acoustic dispensing. Compounds were dosed in a 12 point concentration range into a randomised plate map. Control wells were generated either by dosing of 100% DMSO (max signal) or addition of a reference compound (a PI3K-β inhibitor) that completely eliminated the pAKT signal (min control). Compounds were then tested by one of two assay protocols A or B:
Plates were incubated at 37° C. for 2 h; cells were then fixed by the addition of 10 μl of a 3.7% formaldehyde solution. After 30 minutes the plates were washed with PBS using a Tecan PW384 plate washer. Wells were blocked and cells permeabilised with the addition of 40 μl of PBS containing 0.5% Tween20 and 1% Marvel™ (dried milk powder) and incubated for 60 minutes at r.t. The plates were washed with PBS containing 0.5% (v/v) Tween20 and 20 μl rabbit anti-phospho AKT Ser473 (Cell Signalling Technologies, #3787) in same PBS-Tween+1% Marvel™ was added and incubated overnight at 4° C.
Plates were washed 3 times with PBS+0.05% Tween 20 using a Tecan PW384. 20 μl of secondary antibody Alexa Fluor 488 anti-Rabbit (Molecular Probes, #A11008) diluted in PBS+0.05% Tween20 containing 1% Marvel™ was added to each well and incubated for 1 h at r.t. Plates were washed three times as before then 20 μl PBS added to each well and plates sealed with a black plate sealer.
The plates were read on an Acumen plate reader as soon as possible, measuring green fluorescence after excitation with 488 nm laser. Using this system IC50 values were generated and quality of plates was determined by control wells. Reference compounds were run each time to monitor assay performance.
The cell plates were then incubated for 2 h at 37° C. before being fixed by the addition of 20 μl 3.7% formaldehyde in PBS/A (1.2% final concentration), followed by a 30 minute room temperature incubation, and then a 2× wash with 150 μl PBS/A using a BioTek ELx406 platewasher. Cells were permeabilised and blocked with 20 μl of assay buffer (0.1% Triton X-100 in PBS/A+1% BSA) for 1 h at room temperature, and then washed 1× with 50 μl PBS/A. Primary phospho-AKT (Ser473) D9E XP® rabbit monoclonal antibody (#4060, Cell Signaling Technology) was diluted 1:200 in assay buffer, 20 μl added per well, and plates were incubated at 4° C. overnight. Cell plates were washed 3× with 200 μl PBS/T, then 20 μl 1:750 dilution in assay buffer of Alexa Fluor® 488 goat anti-rabbit IgG secondary antibody (#A11008, Molecular Probes, Life Technologies), with a 1:5000 dilution of Hoechst 33342, was added per well. Following a 1 h incubation at room temperature, plates were washed 3× with 200 μl PBS/T, and 40 μl PBS w/o Ca, Mg and Na Bicarb (Gibco #14190-094) was added per well.
Stained cell plates were covered with black seals, and then read on the Cell Insight imaging platform (Thermo Scientific), with a 10× objective. The primary channel (Hoechst blue fluorescence 405 nM, BGRFR_386_23) was used to Autofocus and to count number of events (this provided information about cytotoxicity of the compounds tested). The secondary channel (Green 488 nM, BGRFR_485_20) measured pAKT staining. […]

PI3K-α = PI3K-α (Homo sapiens, UniProt P42336); assay: Assay c) PI3K cellular potency (phospho-Akt T308 ELISA in BT474 cells); conditions: BT474 cells, 2 h, phospho-AKT T308; may be geometric mean of several tests; read-out: Assay c) PI3Kα Cell IC50
From the text: Assay c): PI3K Cellular Potency
This assay was used to measure PI3K-α inhibition in cells. PDK1 was identified as the upstream activation loop kinase of protein kinase B (Akt 1), which is essential for the activation of PKB. Activation of the lipid kinase phosphoinositide 3 kinase (PI3K) is critical for the activation of PKB by PDK1.
Following ligand stimulation of receptor tyrosine kinases, PI3K is activated, which converts PIP2 to PIP3, which is bound by the PH domain of PDK1 resulting in recruitment of PDK1 to the plasma membrane where it phosphorylates AKT at Thr308 in the activation loop.
The aim of this cell-based mode of action assay is to identify compounds that inhibit PDK activity or recruitment of PDK1 to membrane by inhibiting PI3K activity. Phosphorylation of phospho-Akt (T308) in BT474c cells following treatment with compounds for 2 h is a direct measure of PDK1 and indirect measure of PI3K activity.
BT474 cells (human breast ductal carcinoma, ATCC HTB-20) were seeded into black 384 well plates (Costar, #3712) at a density of 5600 cells/well in DMEM containing 10% FBS and 1% glutamine and allowed to adhere overnight.
The following morning compounds in 100% DMSO were added to assay plates by acoustic dispensing. After a 2 h incubation at 37° C. and 5% CO2, the medium was aspirated and the cells were lysed with a buffer containing 25 mM Tris, 3 mM EDTA, 3 mM EGTA, 50 mM sodium fluoride, 2 mM Sodium orthovanadate, 0.27M sucrose, 10 mM β-glycerophosphate, 5 mM sodium pyrophosphate, 0.5% Triton X-100 and complete protease inhibitor cocktail tablets (Roche #04 693 116 001, used 1 tab per 50 ml lysis buffer).
After 20 minutes, the cell lysates were transferred into ELISA plates (Greiner #781077) which had been pre-coated with an anti total-AKT antibody in PBS buffer and non-specific binding was blocked with 1% BSA in PBS containing 0.05% Tween 20. Plates were incubated over night at 4° C. The next day the plates were washed with PBS buffer containing 0.05% Tween 20 and further incubated with a mouse monoclonal anti-phospho AKT T308 for 2 h. Plates were washed again as above before addition of a horse anti-mouse-HRP conjugated secondary antibody. Following a 2 h incubation at r.t., plates were washed and QuantaBlu substrate working solution (Thermo Scientific #15169, prepared according to provider's instructions) was added to each well. The developed fluorescent product was stopped after 60 minutes by addition of Stop solution to the wells. Plates were read using a Tecan Safire plate reader using 325 nm excitation and 420 nm emission wavelengths respectively. Except where specified, reagents contained in the Path Scan Phospho AKT (Thr308) sandwich ELISA kit from Cell Signalling (#7144) were used in this ELISA assay.

[1] = pAKT Ser473, Protocol B (*); read-out: Assay d) mTOR Cell IC50

T2 sequence (Q13535 whole entry): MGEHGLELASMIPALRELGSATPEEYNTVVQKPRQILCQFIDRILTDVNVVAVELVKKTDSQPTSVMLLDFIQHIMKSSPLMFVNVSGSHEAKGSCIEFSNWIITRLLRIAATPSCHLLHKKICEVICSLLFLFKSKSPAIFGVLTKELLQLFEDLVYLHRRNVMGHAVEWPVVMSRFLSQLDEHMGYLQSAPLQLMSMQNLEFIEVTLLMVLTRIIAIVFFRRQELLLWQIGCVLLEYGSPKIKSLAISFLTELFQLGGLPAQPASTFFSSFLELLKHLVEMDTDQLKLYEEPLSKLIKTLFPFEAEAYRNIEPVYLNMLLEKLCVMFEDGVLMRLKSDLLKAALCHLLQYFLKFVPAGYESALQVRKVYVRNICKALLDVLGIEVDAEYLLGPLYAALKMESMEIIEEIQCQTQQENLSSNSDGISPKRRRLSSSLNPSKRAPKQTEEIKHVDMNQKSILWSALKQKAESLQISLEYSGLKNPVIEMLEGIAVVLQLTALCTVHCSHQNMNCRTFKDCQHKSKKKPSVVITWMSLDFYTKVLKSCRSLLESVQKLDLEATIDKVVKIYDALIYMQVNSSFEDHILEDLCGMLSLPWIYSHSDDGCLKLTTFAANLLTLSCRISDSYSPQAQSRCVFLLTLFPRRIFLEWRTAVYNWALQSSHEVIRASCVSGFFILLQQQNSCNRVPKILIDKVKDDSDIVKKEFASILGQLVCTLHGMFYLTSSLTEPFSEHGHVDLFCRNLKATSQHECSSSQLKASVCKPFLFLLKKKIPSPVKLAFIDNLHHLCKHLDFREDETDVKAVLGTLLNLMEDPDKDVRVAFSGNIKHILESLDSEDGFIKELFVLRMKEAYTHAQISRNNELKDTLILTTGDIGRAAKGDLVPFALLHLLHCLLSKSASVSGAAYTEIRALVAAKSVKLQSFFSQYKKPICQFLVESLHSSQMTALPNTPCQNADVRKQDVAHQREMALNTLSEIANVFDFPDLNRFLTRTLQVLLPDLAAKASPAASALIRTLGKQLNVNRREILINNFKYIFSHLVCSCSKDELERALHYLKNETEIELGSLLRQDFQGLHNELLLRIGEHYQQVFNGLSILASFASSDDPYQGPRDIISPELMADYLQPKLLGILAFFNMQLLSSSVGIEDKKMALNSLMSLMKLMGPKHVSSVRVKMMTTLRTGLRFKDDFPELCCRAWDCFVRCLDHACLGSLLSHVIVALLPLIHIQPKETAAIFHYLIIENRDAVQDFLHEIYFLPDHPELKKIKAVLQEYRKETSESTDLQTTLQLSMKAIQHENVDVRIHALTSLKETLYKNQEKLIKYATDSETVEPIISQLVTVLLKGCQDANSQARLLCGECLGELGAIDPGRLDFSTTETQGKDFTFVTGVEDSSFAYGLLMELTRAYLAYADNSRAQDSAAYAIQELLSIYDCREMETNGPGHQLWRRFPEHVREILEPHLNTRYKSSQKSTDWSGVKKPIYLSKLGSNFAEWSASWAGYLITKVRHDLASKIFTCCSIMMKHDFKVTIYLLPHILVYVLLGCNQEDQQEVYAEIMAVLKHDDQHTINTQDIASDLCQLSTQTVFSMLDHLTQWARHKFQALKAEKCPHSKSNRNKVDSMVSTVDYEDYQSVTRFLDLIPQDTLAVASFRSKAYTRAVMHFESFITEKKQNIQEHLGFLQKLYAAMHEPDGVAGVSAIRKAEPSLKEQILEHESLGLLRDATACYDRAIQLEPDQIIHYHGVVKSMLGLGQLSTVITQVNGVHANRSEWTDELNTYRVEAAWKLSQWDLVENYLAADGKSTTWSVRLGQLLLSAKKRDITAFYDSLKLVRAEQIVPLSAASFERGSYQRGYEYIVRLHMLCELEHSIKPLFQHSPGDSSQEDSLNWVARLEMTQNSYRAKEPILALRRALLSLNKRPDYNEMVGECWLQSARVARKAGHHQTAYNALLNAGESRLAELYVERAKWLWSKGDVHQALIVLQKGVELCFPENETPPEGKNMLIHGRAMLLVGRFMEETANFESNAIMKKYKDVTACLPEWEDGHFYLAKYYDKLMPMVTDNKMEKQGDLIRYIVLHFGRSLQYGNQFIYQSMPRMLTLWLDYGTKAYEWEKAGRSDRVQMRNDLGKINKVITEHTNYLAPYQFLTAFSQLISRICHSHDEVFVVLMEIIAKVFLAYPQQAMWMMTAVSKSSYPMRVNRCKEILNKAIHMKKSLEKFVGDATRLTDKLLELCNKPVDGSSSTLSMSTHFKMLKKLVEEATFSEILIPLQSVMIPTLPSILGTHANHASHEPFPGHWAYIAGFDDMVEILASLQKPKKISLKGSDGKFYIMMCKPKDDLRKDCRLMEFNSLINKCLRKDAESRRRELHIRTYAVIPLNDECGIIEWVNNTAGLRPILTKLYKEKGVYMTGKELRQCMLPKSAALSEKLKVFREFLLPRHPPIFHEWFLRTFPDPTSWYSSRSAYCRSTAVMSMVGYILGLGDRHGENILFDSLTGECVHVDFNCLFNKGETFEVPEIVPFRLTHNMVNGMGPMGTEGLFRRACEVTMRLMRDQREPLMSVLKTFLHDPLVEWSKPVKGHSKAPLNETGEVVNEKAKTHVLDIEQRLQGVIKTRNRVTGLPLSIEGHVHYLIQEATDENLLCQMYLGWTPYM
T2 sequence (Q8WXE1 whole entry partner): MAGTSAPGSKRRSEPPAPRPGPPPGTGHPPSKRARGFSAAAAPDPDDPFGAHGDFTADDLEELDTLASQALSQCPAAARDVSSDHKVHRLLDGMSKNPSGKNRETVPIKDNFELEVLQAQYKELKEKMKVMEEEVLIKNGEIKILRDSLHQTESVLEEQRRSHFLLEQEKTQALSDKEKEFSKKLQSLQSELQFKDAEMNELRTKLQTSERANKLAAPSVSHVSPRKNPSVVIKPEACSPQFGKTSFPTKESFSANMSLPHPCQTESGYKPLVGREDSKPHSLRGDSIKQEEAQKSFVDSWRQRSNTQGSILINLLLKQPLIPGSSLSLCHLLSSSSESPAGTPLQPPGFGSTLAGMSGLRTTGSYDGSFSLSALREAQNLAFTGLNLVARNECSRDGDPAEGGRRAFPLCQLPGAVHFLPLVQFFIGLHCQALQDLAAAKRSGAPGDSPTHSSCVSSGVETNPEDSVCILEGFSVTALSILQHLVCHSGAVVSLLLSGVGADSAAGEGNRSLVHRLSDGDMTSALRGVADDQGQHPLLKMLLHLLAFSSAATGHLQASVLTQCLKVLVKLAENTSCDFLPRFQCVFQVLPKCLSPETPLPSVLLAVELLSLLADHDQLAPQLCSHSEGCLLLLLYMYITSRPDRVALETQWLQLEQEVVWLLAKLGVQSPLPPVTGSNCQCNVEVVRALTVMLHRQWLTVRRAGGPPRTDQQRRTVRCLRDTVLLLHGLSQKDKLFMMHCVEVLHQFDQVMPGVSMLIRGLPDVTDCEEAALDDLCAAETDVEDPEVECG
PI3K-α, sequence (P42336 whole entry): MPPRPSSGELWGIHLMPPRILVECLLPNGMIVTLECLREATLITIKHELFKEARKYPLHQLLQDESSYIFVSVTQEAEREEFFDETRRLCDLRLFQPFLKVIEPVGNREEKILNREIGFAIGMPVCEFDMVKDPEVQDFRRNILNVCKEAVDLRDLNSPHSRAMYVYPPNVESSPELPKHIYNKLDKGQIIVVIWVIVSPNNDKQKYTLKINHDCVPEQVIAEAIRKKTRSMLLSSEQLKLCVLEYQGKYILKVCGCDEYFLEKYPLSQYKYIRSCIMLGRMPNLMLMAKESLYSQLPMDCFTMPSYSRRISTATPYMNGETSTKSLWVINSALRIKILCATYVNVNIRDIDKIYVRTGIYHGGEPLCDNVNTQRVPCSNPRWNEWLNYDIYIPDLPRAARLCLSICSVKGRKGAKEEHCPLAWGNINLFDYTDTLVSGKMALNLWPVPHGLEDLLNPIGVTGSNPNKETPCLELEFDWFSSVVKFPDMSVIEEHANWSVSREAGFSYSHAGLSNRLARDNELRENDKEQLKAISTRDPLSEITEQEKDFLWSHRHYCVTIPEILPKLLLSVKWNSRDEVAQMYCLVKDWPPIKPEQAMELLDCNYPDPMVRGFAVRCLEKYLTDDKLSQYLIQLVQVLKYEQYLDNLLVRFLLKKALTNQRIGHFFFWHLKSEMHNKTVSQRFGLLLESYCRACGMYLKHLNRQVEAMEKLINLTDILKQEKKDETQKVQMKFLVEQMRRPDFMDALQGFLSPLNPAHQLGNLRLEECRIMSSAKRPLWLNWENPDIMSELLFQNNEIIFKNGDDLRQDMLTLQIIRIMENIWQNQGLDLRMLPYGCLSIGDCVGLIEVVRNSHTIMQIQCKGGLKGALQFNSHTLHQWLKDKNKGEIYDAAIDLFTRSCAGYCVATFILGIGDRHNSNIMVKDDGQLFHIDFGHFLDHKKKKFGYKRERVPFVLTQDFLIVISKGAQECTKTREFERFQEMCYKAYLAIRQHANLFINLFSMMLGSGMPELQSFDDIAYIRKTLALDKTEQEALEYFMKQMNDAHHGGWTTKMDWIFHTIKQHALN

| IC50 (ATM kinase) | IC50 (ATR kinase) | IC50 (mTOR; [1]) | IC50 (mTOR; pAKT Ser473, Protocol A (§); read-out: Assay d) mTOR Cell IC50) | IC50 (PI3K-α) | Compound |
| --- | --- | --- | --- | --- | --- |
| 0.00214 µM | > 30 µM | > 0.3 µM |  |  | CC(C)n1c(=O)n(C)c2cnc3ccc(-c4ccc(OCCCN5CCC5)nc4F)cc3c21 [Example 15, 8-[6-[3-(azetidin-1-yl)propoxy]-2-fluoro-3-pyridyl]-1-isopropyl-3-methyl-imidazo[4,5-c]quinolin-2-one] |
| 0.00228 µM | > 30 µM |  | 23.6 µM |  | CC(C)n1c(=O)n(C)c2cnc3cc(F)c(-c4ccc(OCCCN(C)C)nc4F)cc3c21 [Example 11, 8-[6-[3-(dimethylamino)propoxy]-2-fluoro-3-pyridyl]-7-fluoro-1-isopropyl-3-methyl-imidazo[4,5-c]quinolin-2-one] |
| 0.00461 µM | > 30 µM | > 10 µM |  |  | CC(C)n1c(=O)[nH]c2cnc3cc(F)c(-c4ccc(OCCCN(C)C)nc4)cc3c21 [Example 17, 8-[6-[3-(Dimethylamino)propoxy]-3-pyridyl]-7-fluoro-1-isopropyl-3H-imidazo[4,5-c]quinolin-2-one] |

Continued, compound first:

| Compound | IC50 (ATM kinase) | IC50 (ATR kinase) | IC50 (mTOR; [1]) | IC50 (mTOR; pAKT Ser473, Protocol A (§); read-out: Assay d) mTOR Cell IC50) | IC50 (PI3K-α) |
| --- | --- | --- | --- | --- | --- |
| Cn1c(=O)n(C2CC2)c2c3cc(-c4cnc5[nH]ccc5c4)ccc3ncc21 [CN102399218A Compound 62, reference compound] | 0.135 µM | 0.0553 µM |  |  |  |
| CC(C)n1c(=O)n(C)c2cnc3ccc(-c4ccc(OCCCN5CCCCC5)nc4)cc3c21 [Example 5, 1-Isopropyl-3-methyl-8-[6-[3-(l-piperidyl)propoxy]-3-pyridyl]imidazo[4,5-c]quinolin-2-one] |  |  | 6.76 µM |  | 1.24 µM |
| CC(C)n1c(=O)n(C)c2cnc3cc(F)c(-c4ccc(OCCCN(C)C)nc4)cc3c21 [Example 1, 8-[6-[3-(Dimethylamino)propoxy]-3-pyridyl]-7-fluoro-1-isopropyl-3-methyl-imidazo[4,5-c]quinolin-2-one] |  | > 30 µM | > 30 µM |  | 13.4 µM |
